≈ marks a conversion by molar mass, not a printed value. Where a name gives a salt, the structure may show the parent alone.
Assays:
HEK293 = assay: cells; type: functional, Homo sapiens, ATCC CRL1573; conditions: Homo sapiens, ATCC CRL1573, HEK293; ASSAY_TEST Inhibition of Cell Viability; detection method Resazurin; Fluorescence (ex560/em590); MEDIA DMEM with 10% FBS; plate type 384well; TC; CORNING #3712; time 18 hr; read-out: CC50
Acinetobacter baumannii = assay: microbe, parasite or virus in culture; conditions: ATCC 19606, 18 h, ASSAY_TEST Inhibition of Bacterial Growth, detection method Absorption (OD600), MEDIA CAMHB, plate type 384well, NBS, CORNING #3640
Description: Antibacterial activity against Acinetobacter baumannii ATCC 19606 (CO-ADD:GN_034); MIC in CAMBH media using NBS plates, by OD600

Pseudomonas aeruginosa [1] = assay: Antibacterial activity against Pseudomonas aeruginosa PAO397 [PAO1 d(mexAB-oprM) d(mexCD-oprJ) d(mexEF-oprN) d(mexJKL) d(mexXY) d(opmH)] (CO-ADD:GN_211); MIC in CAMBH media using NBS plates, by OD(600); type: functional; conditions: ASSAY_TEST Inhibition of Bacterial Growth, detection method Absorption (OD600), MEDIA CAMHB, plate type 384well, CORNING #3640, time 18 hr
Staphylococcus aureus = assay: microbe, parasite or virus in culture; conditions: ATCC 43300, 18 h, ASSAY_TEST Inhibition of Bacterial Growth, detection method Absorption (OD600), MEDIA CAMHB, plate type 384well, NBS, CORNING #3640
Description: Antibacterial activity against Staphylococcus aureus MRSA ATCC 43300 (CO-ADD:GP_020); MIC in CAMBH media, using NBS plates, by OD(600)

Klebsiella pneumoniae = assay: microbe, parasite or virus in culture; conditions: ATCC 700603, 18 h, ASSAY_TEST Inhibition of Bacterial Growth, detection method Absorption (OD600), MEDIA CAMHB, plate type 384well, NBS, CORNING #3640
Description: Antibacterial activity against Klebsiella pneumoniae MDR ATCC 70063 (CO-ADD:GN_003); MIC in CAMBH media using NBS plates, by OD(600)

Candida albicans = assay: microbe, parasite or virus in culture; conditions: ATCC 90028, ASSAY_TEST Inhibition of Fungal Growth, detection method Absorption (OD530), plate type 384well, NBS, CORNING #3640
Description: Antifungal activity against Candida albicans ATCC 90028 (CO-ADD:FG_001); MIC in YNB media using NBS plates, by OD630

Escherichia coli = assay: microbe, parasite or virus in culture; conditions: ATCC 25922, 18 h, ASSAY_TEST Inhibition of Bacterial Growth, detection method Absorption (OD600), MEDIA CAMHB, plate type 384well, NBS, CORNING #3640
Description: Antibacterial activity against Escherichia coli ATCC 25922 (CO-ADD:GN_001); MIC in CAMBH media using NBS plates, by OD(600)

Pseudomonas aeruginosa [2] = assay: microbe, parasite or virus in culture; conditions: ATCC 27853, 18 h, ASSAY_TEST Inhibition of Bacterial Growth, detection method Absorption (OD600), MEDIA CAMHB, plate type 384well, NBS, CORNING #3640
Description: Antibacterial activity against Pseudomonas aeruginosa ATCC 27853 (CO-ADD:GN_042); MIC in CAMBH media using NBS plates, by OD(600)

Description for Cryptococcus neoformans: Antifungal activity against Cryptococcus neoformans H99 ATCC 208821 (CO-ADD:FG_002); MIC in YNB media using NBS plates, by Resazurin OD(600-570)

Compound	MIC (Acinetobacter baumannii) [µM]	MIC (Pseudomonas aeruginosa [1]) [µM]	MIC (Staphylococcus aureus) [µM]	MIC (Klebsiella pneumoniae) [µM]	MIC (Candida albicans) [µM]	MIC (Escherichia coli) [µM]	MIC (Pseudomonas aeruginosa [2]) [µM]	MIC (Cryptococcus neoformans) [µM]	CC50 (HEK293) [µM]
C[C@H]1CC[C@@]2(O)C(C)(C)[C@@H]3CC[C@@]2(C)[C@H]1C3	> 20	> 20	> 20	> 20	> 20	> 20	> 20	> 20	> 20
NC(=O)[C@@H]1CC[C@@H]2CN1C(=O)N2OS(=O)(=O)O	> 20	> 20	> 20	> 20	> 20	> 20	> 20	> 20	> 20
O=C(Nc1nnc(-c2ccc(Cl)cc2)o1)c1ccc(F)cc1	> 20	> 20	> 20	> 20	> 20	> 20	> 20	> 20	> 20
CCC(CC)[C@H](NC(C)=O)[C@@H]1[C@H](O)[C@@H](C(=O)O)C[C@H]1NC(=N)N	> 20	> 20	> 20	> 20	> 20	> 20	> 20	> 20	> 20
O=C(Nc1nnc(-c2ccccc2)o1)c1ccc(F)cc1	> 20	> 20	20 (≈ 5.67 µg/mL)	> 20	> 20	> 20	> 20	20 (≈ 5.67 µg/mL)	> 20
O=C(NCCN1CCCCC1)c1cccc(C(F)(F)F)c1	> 20	> 20	> 20	> 20	> 20	> 20	> 20	> 20	> 20
O=C(O)c1ccccc1Sc1ncnc2sc3c(c12)CCC3	> 20	> 20	> 20	> 20	> 20	> 20	> 20	> 20	> 20
Nc1nc(N)c2c(Sc3ccccc3)cccc2n1	> 20	> 20	> 20	> 20	> 20	> 20	> 20	> 20	10.8
CCn1cc(C(=O)O)c(=O)c2cc(F)c(N3CCNC(C)C3)c(F)c21 (stereo not drawn) [LOMEFLOXACIN HYDROCHLORIDE]	20	0.312	10	20	> 20	0.625	> 20	> 20	> 20
N[C@H](CCC(=O)N[C@@H](Cc1c[nH]c2ccccc12)C(=O)O)C(=O)O [GOLOTIMOD]	> 20	> 20	> 20	> 20	> 20	> 20	> 20	> 20	> 20
CC1CN(c2ncnc3c2c(-c2ccccc2)cn3-c2ccc(F)cc2)CC(C)O1 (stereo not drawn)	> 20	> 20	> 20	> 20	> 20	> 20	> 20	> 20	> 20
Nc1nc(-c2ccccc2)nc2c1ncn2[C@@H]1O[C@H](COS(=O)(=O)NC(=O)c2ccccc2O)[C@@H](O)[C@H]1O	> 20	> 20	> 20	> 20	> 20	> 20	> 20	> 20	> 20
COc1cccc(N2CCN(C3=Nc4c(F)cccc4[C@H](CC(=O)O)N3c3cc(C(F)(F)F)ccc3OC)CC2)c1 [LETERMOVIR]	> 20	> 20	> 20	> 20	> 20	> 20	> 20	> 20	> 20
Cc1c(OCC(F)(F)F)ccnc1C[S+]([O-])c1nc2ccccc2[nH]1 (stereo not drawn) [LANSOPRAZOLE]	> 20	> 20	> 20	> 20	> 20	> 20	> 20	> 20	> 20
O=C(O)[C@H]1C2CCC(CC2)[C@@H]1Nc1nc(-c2c[nH]c3ncc(F)cc23)ncc1F [PIMODIVIR]	> 20	> 20	> 20	> 20	> 20	> 20	> 20	> 20	> 20
Cc1cc(C)n2nc(C(=O)NS(=O)(=O)c3c(C)cccc3OC(F)(F)F)nc2n1	> 20	> 20	> 20	> 20	> 20	> 20	> 20	> 20	> 20
NC[C@H]1O[C@H](O[C@H]2[C@H](O)[C@@H](O[C@H]3O[C@H](CO)[C@@H](O)[C@H](N)[C@H]3O)[C@H](N)C[C@@H]2N)[C@H](N)C[C@@H]1O [TOBRAMYCIN]	2.5 (≈ 1.17 µg/mL)	1.25 (≈ 0.584 µg/mL)	> 20	> 20	> 20	2.5 (≈ 1.17 µg/mL)	20 (≈ 9.35 µg/mL)	> 20	> 20
CC(C)N(c1cc(-c2ccccc2)sc1C(=O)O)C(=O)[C@H]1CC[C@H](C)CC1	> 20	> 20	> 20	> 20	> 20	> 20	> 20	> 20	> 20

More lines, main results first:

MIC (Acinetobacter baumannii) [µM]	MIC (Pseudomonas aeruginosa [1]) [µM]	MIC (Staphylococcus aureus) [µM]	MIC (Klebsiella pneumoniae) [µM]	MIC (Candida albicans) [µM]	MIC (Escherichia coli) [µM]	MIC (Pseudomonas aeruginosa [2]) [µM]	MIC (Cryptococcus neoformans) [µM]	Compound	CC50 (HEK293) [µM]
> 20	> 20	> 20	> 20	> 20	> 20	> 20	> 20	CC(C)Cn1c(=O)n(C)c(=O)c2c(-c3cncn3C)n(Cc3cccc4ccccc34)nc21	> 20
> 20	> 20	> 20	> 20	> 20	> 20	> 20	> 20	O=C(NNC(=S)Nc1ccc(Cl)cc1)c1ccncc1	> 20
> 20	> 20	> 20	> 20	> 20	> 20	> 20	> 20	CC(C)(C)c1cc(CCC(=O)N2CCC2)cc(C(C)(C)C)c1O	> 20
> 20	> 20	> 20	> 20	> 20	> 20	> 20	> 20	FC(F)(F)Oc1ccc(Nc2ccc3cccc(Cl)c3n2)cc1 [OBEFAZIMOD]	> 20
> 20	> 20	> 20	> 20	> 20	> 20	> 20	> 20	CNc1nc(=O)[nH]cc1F	> 20
> 20	> 20	> 20	> 20	> 20	> 20	> 20	> 20	CC[C@@]1(O)C(=O)OCc2c1cc1n(c2=O)Cc2cc3c([N+](=O)[O-])cccc3nc2-1 [RUBITECAN]	0.695
> 20	> 20	> 20	> 20	> 20	> 20	> 20	5	CN(Cc1ccc(C(C)(C)C)cc1)Cc1cccc2ccccc12 [BUTENAFINE HYDROCHLORIDE]	> 20
> 20	> 20	> 20	> 20	> 20	> 20	> 20	> 20	COc1ccc(OCc2ccc(COc3c(Cl)cccc3Cl)cc2)c(Cl)c1	> 20
> 20	5 (≈ 2.64 µg/mL)	0.625 (≈ 0.33 µg/mL)	> 20	> 20	2.5 (≈ 1.32 µg/mL)	> 20	> 20	O=C(Nc1cccc(C2=NCCN2)c1)c1ccc(-c2ccc(C(=O)Nc3cccc(C4=NCCN4)c3)cc2)cc1	> 20

From ChEMBL document CHEMBL4513161, “CO-ADD screening of MMV (CH) - Pandemic Response Box” (2021)
